The values that follow come from US4416883A, “Penicillin derivatives” (Beecham Group Limited, priority 1980, dated 1983).

Common to all, as to type: cell-based
For one assay, the system named is P. mirabilis C977. In words: MIC against P. mirabilis C977. The settings on record: Proteus mirabilis, AGAR. The source says:
(§1) | MIC values (μg/ml) of the compounds of Example 4b against | a number of organisms important in human infections

Another assay concerns P. mirabilis 889. In words: MIC against P. mirabilis 889. To be noted: Proteus mirabilis, AGAR.
Text: as §1

The subject of a further assay is Ps aeruginosa Dalgleish. In words: MIC against Ps aeruginosa Dalgleish. To be noted: AGAR; Ps aeruginosa Dalgleish 10^-2.
Text: as §1

For a further assay, the system named is E. coli NCTC 10418. Put plainly: MIC against E. coli NCTC 10418. The settings on record: Escherichia coli.
Text: as §1

The test system of the next assay is Ps aeruginosa 10662. Put plainly: MIC against Ps aeruginosa 10662.
Text: as §1

In the next assay the test system is Staph. aureus Russell. Put plainly: MIC against Staph. aureus Russell. To be noted: Staphylococcus aureus, AGAR.
Text: as §1

For the next assay, the system named is S. faecalis I. Put plainly: MIC against S. faecalis I. The settings on record: Enterococcus faecalis, AGAR.
Text: as §1

A further assay concerns Serratia marcescens US32. Put plainly: MIC against Serratia marcescens US32. The settings on record: AGAR.
Text: as §1

For the next assay, the system named is Enterobacter cloacae N1. Put plainly: MIC against Enterobacter cloacae N1. The settings on record: AGAR.
Text: as §1

The test system of the next assay is B. subtilis. In words: MIC against B. subtilis. The settings on record: Bacillus subtilis, AGAR.
Text: as §1

A further assay concerns E. coli JT425. In words: MIC against E. coli JT425. To be noted: Escherichia coli, AGAR.
Text: as §1

The next assay has as its system E. coli JT4. In words: MIC against E. coli JT4. To be noted: Escherichia coli, AGAR.
Text: as §1

Another assay concerns P. morganii. Put plainly: MIC against P. morganii. The settings on record: Morganella morganii, AGAR.
Text: as §1

The next assay deals with β-Haemolytic Strep. CN10. In words: MIC against β-Haemolytic Strep. CN10. The settings on record: AGAR.
Text: as §1

The test system of the next assay is Klebsiella aerogenes A. In words: MIC against Klebsiella aerogenes A.
Text: as §1

In the next assay the test system is Staph. aureus Oxford. Put plainly: MIC against Staph. aureus Oxford. The settings on record: Staphylococcus aureus.
Text: as §1

In a further assay the test system is P. rettgeri. In words: MIC against P. rettgeri. To be noted: Providencia rettgeri, AGAR.
Text: as §1

What is called MIC is the least concentration at which growth counts as inhibited. Lower therefore signals inhibition by little substance.

A value given as a limit tells only on which side of the number the result lay.

With `CCN1CCN(C(=O)N[C@@H](C(=O)N[C@@H]2C(=O)N3[C@@H](C(=O)O)CS[C@H]23)c2ccccc2)C(=O)C1=O` [Example 4b, Sodium 6β[D,2(4-ethyl-2,3-dioxopiperazine-1-carbonylamino)]phenylacetamidobisnorpenicillanate], the MIC in the assay with P. mirabilis C977 was 0.1 µg/mL; with P. mirabilis 889 it was over 100 µg/mL; with Ps aeruginosa Dalgleish, over 100 µg/mL; against E. coli NCTC 10418 (NCTC10418, AGAR), 1 µg/mL; against E. coli NCTC 10418 (NCTC10418, BROTH), 0.5 µg/mL; in the assay with Ps aeruginosa 10662 (AGAR, Ps aeruginosa 10662) it was 10 µg/mL. The MIC in the assay with Ps aeruginosa 10662 (AGAR, Ps aeruginosa 10662 10^-2) is 5 µg/mL; in the assay with Ps aeruginosa 10662 (BROTH, Ps aeruginosa 10662), 10 µg/mL; against Ps aeruginosa 10662 (BROTH, Ps aeruginosa 10662 10^-2) it was 5 µg/mL; with Staph. aureus Russell, over 100 µg/mL; in the assay with S. faecalis I it was 50 µg/mL; against Serratia marcescens US32, 0.5 µg/mL. Moreover, the MIC is 0.5 µg/mL against Enterobacter cloacae N1; 5 µg/mL in the assay on B. subtilis; 10 µg/mL against E. coli JT425; over 100 µg/mL against E. coli JT4; 0.2 µg/mL with P. morganii; 0.2 µg/mL in the assay with β-Haemolytic Strep. CN10. Besides, the MIC against Klebsiella aerogenes A (AGAR) is 0.2 µg/mL; with Klebsiella aerogenes A (BROTH) it was over 10 µg/mL; in the assay on Staph. aureus Oxford (AGAR), 1 µg/mL; in the assay with Staph. aureus Oxford (BROTH) it was 0.5 µg/mL; against P. rettgeri it was 0.5 µg/mL.
